# Experimental data: ChEMBL document CHEMBL3988442, “University of Dundee, Small-Polar-MMV Screening Library” (2021)
# pIC50: −log10 of the molar value.
# Molecular target: Tryptophan--tRNA ligase (Mycobacterium tuberculosis (strain ATCC 25618 / H37Rv), UniProt P9WFT3)
# Assay: Biochemical assay for Mt-TrpRS
# Assay type: functional
# Sequence of Tryptophan--tRNA ligase (P9WFT3 whole entry): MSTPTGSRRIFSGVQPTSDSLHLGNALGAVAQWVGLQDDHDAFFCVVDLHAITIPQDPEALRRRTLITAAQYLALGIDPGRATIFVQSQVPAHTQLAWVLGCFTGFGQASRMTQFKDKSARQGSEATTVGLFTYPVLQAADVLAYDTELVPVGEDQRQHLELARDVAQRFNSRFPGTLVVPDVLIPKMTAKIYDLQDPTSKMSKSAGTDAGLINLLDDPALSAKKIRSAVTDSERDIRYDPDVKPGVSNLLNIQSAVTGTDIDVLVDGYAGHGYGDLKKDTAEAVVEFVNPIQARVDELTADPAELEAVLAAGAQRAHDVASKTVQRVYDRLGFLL
compound,measurement,value
COc1ccccc1C(=O)N1CC(=O)N(CC2CC2)CC(O)C1 (configuration not stated),pIC50,< 3.71
COc1ccc(S(=O)(=O)N2CCC(O)(CN(C)C)C2)cc1 (configuration not stated),pIC50,< 3.71
Cn1cc(CCN2CCOC(CNc3cccnn3)C2)cn1 (configuration not stated),pIC50,< 3.71
COCCN1CC=C(c2cccc(OC)c2)CC1,pIC50,< 3.71
CCOCc1cnc2n1CCN(C(=O)c1ccccc1)C2C (configuration not stated),pIC50,< 3.71
Cc1nnc2n1CCN(Cc1csc(-c3ncccn3)n1)C2,pIC50,< 3.71
COCc1cncc2c1CCN(C(=O)c1cscn1)C2,pIC50,< 3.71
CN(C)C(=O)CO[C@H]1CN(Cc2ccsc2)[C@@H]2COC[C@H]12,pIC50,< 3.71
Cc1csc(Nc2nccnc2C2CCCN2CC(N)=O)n1 (configuration not stated),pIC50,< 3.71
CCc1ccc(CN2C[C@H](OC)[C@H]3COC[C@H]32)o1,pIC50,< 3.71
CCOC1COC2(CCN(CC3CC3)CC2)C1 (configuration not stated),pIC50,< 3.71
CC(=O)N1N=C(c2cccs2)OC1C(=O)NCCc1cccc(Cl)c1 (configuration not stated),pIC50,< 3.71
COCCNC(=O)c1ccccc1-n1cc(CN)cn1,pIC50,< 3.71
Cn1cc(C(=O)NCc2cncc3c2CCN(c2ccccn2)C3)cn1,pIC50,< 3.71
Cc1cccc(CN2CCC(c3nnsc3S(C)(=O)=O)CC2)c1,pIC50,< 3.71
O=C(c1cncs1)N1CCC(c2cnccn2)CC1,pIC50,< 3.71
CC(C)c1nc(CN2CCC(c3ccnn3CCO)CC2)no1,pIC50,< 3.71
O=C(O)C1(Cc2cc(-c3ccc(F)cc3)no2)CCOCC1,pIC50,< 3.71
O=C(Cn1ccnc1)N1C[C@@H]2CC[C@H](Oc3ccccc3F)[C@@H]2C1,pIC50,< 3.71
COCc1cc(O)nc(C2CCCN(Cc3cccc(Cl)c3Cl)C2)n1 (configuration not stated),pIC50,< 3.71
O=C([C@H]1COC[C@H]2CN(c3ccncn3)C[C@H]21)N1CCCC1,pIC50,< 3.71
OC1CCCN(Cc2ccnc(-c3cccnc3)n2)C1 (configuration not stated),pIC50,< 3.71
OCCN1CCN(Cc2cnc3c(-c4ccccc4)cnn3c2)CC1,pIC50,< 3.71
COc1ccccc1NC(=O)NCCCC(=O)Nc1cn[nH]c1,pIC50,< 3.71
Cc1nc(C2CCN(Cc3ncc[nH]3)CC2)no1,pIC50,< 3.71
CN(C)CCN1C[C@@H]2CN(c3ccccc3)C[C@@H]2C1=O,pIC50,< 3.71
CCc1ccc(C(=O)N2CCC(c3nncn3CC)CC2)s1,pIC50,< 3.71
Cn1cnnc1C1CCN(C(=O)c2cc3c(s2)CCCC3)CC1,pIC50,< 3.71
Cc1nn(CC(=O)NCc2cc3n(n2)CCCN(CC(C)C)C3)cc1Cl,pIC50,< 3.71
CS(=O)(=O)CC(=O)N1C[C@H]2CCC[C@@]2(COc2ccccn2)C1,pIC50,< 3.71
COCCNc1nnc(-c2ccccn2)s1,pIC50,< 3.71
CSc1ncc(Cl)c(C(=O)NC(Cc2ccccc2)C(=O)O)n1 (configuration not stated),pIC50,< 3.71
CSc1ncc(C(=O)NCc2cc3n(n2)CCCN(CC(C)C)C3)cn1,pIC50,< 3.71
Cn1c(=O)c2cc(C(=O)NCCOCC(F)(F)F)ccc2n(C)c1=O,pIC50,< 3.71
Cc1ccc(C(=O)NS(=O)(=O)c2ccccc2F)c(=O)[nH]1,pIC50,< 3.71
OCc1nnc2n1CCN(c1cnccn1)C2,pIC50,< 3.71
Cc1cnc(N)c(C(=O)C2CCN(C(=O)C3CCC3)CC2)c1,pIC50,< 3.71
Cc1cc(C)nc(C2CCN(C(=O)c3cncnc3C)C2)n1 (configuration not stated),pIC50,< 3.71
CNc1cccc(C2CCCN(C(=O)c3ccn(C)n3)C2)n1 (configuration not stated),pIC50,< 3.71
CNC(=O)CCc1cc(C)nc(C2CCCCN2)n1 (configuration not stated),pIC50,< 3.71
O=C(c1ccccn1)N1CCC(Cc2cnc3[nH]ccc3c2)CC1,pIC50,< 3.71
Cc1cc(C[C@@H]2CCC[C@H]2NCc2ccccc2F)on1,pIC50,< 3.71
CCN(CC)Cc1ccc(C(=O)N2CCN(CC(C)O)CC2)o1 (configuration not stated),pIC50,< 3.71
O=C(N[C@@H]1CC[C@@H](n2ccnc2)[C@@H]1O)c1cc2c(s1)CCC2,pIC50,< 3.71
O=C(CCc1cccnc1)N1CCC(c2cnccn2)CC1,pIC50,< 3.71
CCC(CC#N)n1ccc(C(F)(F)F)n1 (configuration not stated),pIC50,< 3.71
O=C1CCC(=O)N1c1nn(Cc2ccccc2)cc1Cl,pIC50,< 3.71
Cc1nn(C)cc1C(=O)N1CCC(CSc2ccccc2)C1 (configuration not stated),pIC50,< 3.71
C[C@@]1(O)CCN(Cc2cc[nH]n2)C[C@H]1Oc1cccc(F)c1,pIC50,< 3.71
Cc1cnc(N)c(C(=O)C2CCN(C(=O)c3cnc(C)cn3)CC2)c1,pIC50,< 3.71
O=C1CCC(=O)N1c1nn(Cc2cccc(F)c2)cc1Cl,pIC50,< 3.71
CNC(=O)Nc1cnc2cc(Cl)ccc2c1O,pIC50,< 3.71
O=C(NS(=O)(=O)c1cccnc1)C1CC(c2ccccc2)=NO1 (configuration not stated),pIC50,< 3.71
O=C(c1cnco1)N1C[C@@H](O)[C@H](Oc2cccc(F)c2)C1,pIC50,< 3.71
Cc1nc(CCC(=O)NCC(N)=O)cc(C2CCNCC2)n1,pIC50,< 3.71
O=C(CC1CC1)N1CCC2(CC1)C(=O)NCCN2Cc1ccccc1,pIC50,< 3.71
CC(=O)N1CCCC(Cc2nccn2C)C1 (configuration not stated),pIC50,< 3.71
CC(C)c1ccc(-n2ncc(C(=O)NCC3COC(C)(C)O3)c2N)cc1 (configuration not stated),pIC50,< 3.71
CN(Cc1cccnc1)Cc1cncc2c1CCN(c1ccccn1)C2,pIC50,< 3.71
Cc1ccc(C(=O)NS(=O)(=O)c2ccccc2Cl)c(=O)[nH]1,pIC50,< 3.71
CCc1noc(CN2CCN(c3nccs3)CC2)n1,pIC50,< 3.71
Cn1c(=O)c2cc(C(=O)NCCc3ccccc3)ccc2n(C)c1=O,pIC50,< 3.71
Cc1cnc(N2CCOC(C(=O)NCc3ccccc3)C2)s1 (configuration not stated),pIC50,< 3.71
O=C(CCn1ccnc1)N1C[C@@H](O)[C@H](Oc2cccc(F)c2)C1,pIC50,< 3.71
Cc1ccccc1-c1cncc(C2CCN(CCO)CC2)n1,pIC50,< 3.71
CN(C)C(=O)CN1CCOCC2(C1)CN(c1ncccn1)CCO2 (configuration not stated),pIC50,< 3.71
C[C@H](N)Cn1nc(-c2cccs2)oc1=O,pIC50,< 3.71
CC(C)N1CCCC2(CCN(Cc3noc(C4CCCC4)n3)C2)C1=O (configuration not stated),pIC50,< 3.71
COc1cc(CN2CC[C@H](NC(C)=O)[C@@H](O)CC2)ccc1F,pIC50,< 3.71
CC(=O)N1CCc2nc(-c3ccc(F)cc3)nc(NC(C)C)c2CC1,pIC50,< 3.71
CCOC(=O)CNC(=O)C1OC(c2ccccc2)=NN1C(C)=O (configuration not stated),pIC50,< 3.71
CCn1cc(C(=O)N2CCCC(c3nccs3)C2)cn1 (configuration not stated),pIC50,< 3.71
Cc1ccnc(C2CCN(C(=O)c3cnn(C)c3)C2)n1 (configuration not stated),pIC50,< 3.71
CC1CCN(CC(O)CNc2ccccn2)CC1 (configuration not stated),pIC50,< 3.71
CCn1cnnc1CNC(=O)NC(c1cccs1)C1CCCC1 (configuration not stated),pIC50,< 3.71
CCn1cc(N)c(-c2nnc3n2CCC3)n1,pIC50,< 3.71
O=C(NC1CC1)N1C[C@@H]2CCN(C(=O)c3cscn3)[C@@H]2C1,pIC50,< 3.71
Cn1cnc(S(=O)(=O)N2CC3(CCN(c4ccccc4)C3)C2)c1,pIC50,< 3.71
Cn1ccc(C(=O)N2CCCC(c3cc(O)n(C)n3)C2)n1 (configuration not stated),pIC50,< 3.71
COc1ccc(-c2cc(N)on2)cc1,pIC50,< 3.71
COCC(=O)N1CCCC(c2cccc(-n3ccnc3)n2)C1 (configuration not stated),pIC50,< 3.71
Cc1nccn1CC1CCCN(C(=O)c2cnn(C)c2)C1 (configuration not stated),pIC50,< 3.71
CCOCC(=O)N1C[C@@H]2CC[C@H](Oc3ccccc3)[C@@H]2C1,pIC50,< 3.71
c1cnc(N2CCO[C@H]3CN(CC4CCOC4)C[C@H]32)cn1 (some centres not stated),pIC50,< 3.71
O=C1CO[C@H]2CN(Cc3ccccc3Br)C[C@@H]2N1,pIC50,< 3.71
Fc1ccc2c(c1)C1(CCNCC1)CC2NC1CC1 (configuration not stated),pIC50,< 3.71
Cc1ccnc(N2CCC(C(N)=O)CC2)n1,pIC50,< 3.71
O=C(N[C@@H]1CCC[C@@H](N2CCCC2)[C@@H]1O)c1cc2ccccc2[nH]1,pIC50,< 3.71
N#CCCN1CC(O)CN(C(=O)c2cccc(C(F)(F)F)c2)CC1=O (configuration not stated),pIC50,< 3.71
O=C(COc1cccc(Cl)c1)N1CCOCC1c1ncon1 (configuration not stated),pIC50,< 3.71
C[S+]([O-])CCNC(=O)Nc1cc(F)ccc1-n1cccn1 (configuration not stated),pIC50,< 3.71
CO[C@H]1CN(Cc2cc(F)ccc2F)CC[C@@]12CCCO2,pIC50,< 3.71
COCCn1c2c(ccc1=O)CC(NCc1cnn(C)c1)CC2 (configuration not stated),pIC50,< 3.71
CCCC(=O)N1CCCCC1c1nccc(C)n1 (configuration not stated),pIC50,< 3.71
CC(=O)N1CCCC(c2ccc(C(N)=O)cn2)C1 (configuration not stated),pIC50,< 3.71
CCn1ncc2c1C(COC)N(C(=O)c1cscn1)CC2 (configuration not stated),pIC50,< 3.71
O=C(c1cccnc1)N1CCC(c2nc(O)cc(-c3ccncc3)n2)C1 (configuration not stated),pIC50,< 3.71
CS(=O)(=O)NC1CCN(C(=O)CCC2CCCO2)CC1 (configuration not stated),pIC50,< 3.71
CNC(=O)C1(CCCc2ccncc2)CCN1 (configuration not stated),pIC50,< 3.71
CNc1nc2c(s1)C(=O)CN(C(=O)NCCc1ccccc1)C2,pIC50,< 3.71
CC(=O)N1CCN(CC(N)=O)CC(COc2ccccc2)C1 (configuration not stated),pIC50,< 3.71
Cc1cccc(Cn2cc(C)c(N)n2)c1,pIC50,< 3.71
CCCS(=O)(=O)N1CC(=O)N(Cc2cccc(OC)c2OC)CC(O)C1 (configuration not stated),pIC50,< 3.71
O=C1NCC[C@]12CN(Cc1ccco1)C[C@H]2c1ccccc1,pIC50,< 3.71
Cc1nc(Nc2nncs2)cc(C2CCCN2C)n1 (configuration not stated),pIC50,< 3.71
CCc1n[nH]c(C(=O)NCCn2ccc(C)n2)c1C,pIC50,< 3.71
CCS(=O)(=O)N1CC(=O)N(Cc2ccccc2OC)CC(O)C1 (configuration not stated),pIC50,< 3.71
COCCc1noc(CN(C)C2CCCN(c3cccnn3)C2)n1 (configuration not stated),pIC50,< 3.71
Fc1ccc(-c2nc(CN3CCCC3Cn3cncn3)co2)cc1 (configuration not stated),pIC50,< 3.71
CCC(=O)N1CCc2onc(CNS(C)(=O)=O)c2C1,pIC50,< 3.71
CC(C)c1nc(CN2CCCC(Cn3cncn3)C2)cs1 (configuration not stated),pIC50,< 3.71
CN(C)c1ccc(CC2COCCN(Cc3nccn3C)C2)nn1 (configuration not stated),pIC50,< 3.71
COc1ccccc1C1(C(=O)NCCN2CCCCC2)CCOCC1,pIC50,< 3.71
CC(=O)N1CCCC(c2ccnc(N(C)C)n2)C1 (configuration not stated),pIC50,< 3.71
c1ccc(N2CCOC(Cc3cccnc3)C2)cc1 (configuration not stated),pIC50,< 3.71
Fc1cccc(-c2nc(CN3CCCC3Cn3cccn3)co2)c1 (configuration not stated),pIC50,< 3.71
Cc1cccc(C2CCCN(C(=O)c3ccncc3)C2)n1 (configuration not stated),pIC50,< 3.71
CCn1cc(S(=O)(=O)NC(=O)CCc2c[nH]c3ccccc23)cn1,pIC50,< 3.71
Cc1c(Br)cc2c(c1C)OCC(N(C)C)C2=O (configuration not stated),pIC50,< 3.71
OCCN1CCCCC1c1cc[nH]n1 (configuration not stated),pIC50,< 3.71
O=C(CN1CCOC1=O)N1CC[C@@H](c2ccc3ccccc3c2)[C@H](O)C1,pIC50,< 3.71
COc1ccc2c3c1CN(C(C)=O)CC3=CC(C)(C)CO2,pIC50,< 3.71
CC1CN(Cc2ccccc2)CCCN1CCS(C)(=O)=O (configuration not stated),pIC50,< 3.71
CCN(CC)C1COc2ccc(Br)cc2C1=O (configuration not stated),pIC50,< 3.71
CSCCC(NC(=O)c1nc(SC)ncc1Cl)C(=O)O (configuration not stated),pIC50,< 3.71
COCCC(=O)N1CCCC1c1csc(Nc2ccccn2)n1 (configuration not stated),pIC50,< 3.71
CN(C)c1ncccc1CNC(=O)N1CCCC1CN1CCCC1 (configuration not stated),pIC50,< 3.71
